In PubChem BioAssay AID1745844 (Carcinogenic Potency Database (CPDB), 2022) one finds TD50 and carcinogen call data, which are given here for nine compounds.

In this data set the test system is rodent lifetime carcinogenesis bioassay, tumor incidence TD50. Put plainly: carcinogenic potency in animals, long-term in vivo studies, CPDB compilation (AID 1745844).

The structures appear in SMILES notation. Active and inactive are the calls of the source. How the calls were made is not given here.

Usually TD50 stands for the dose at which the toxic effect under study appears in half of the subjects. Turning to `CC(C)C/C=N/N(C)C=O`, the TD50 (mouse, strain Swiss albino, females, by gavage, site: gall bladder, lesion: adenocarcinoma, dosed 53 weeks, study length 127 weeks) was found to be 151 mg/kg/day; the TD50 (mouse, strain Swiss albino, females, by gavage, site: gall bladder, lesion: adenoma, dosed 53 weeks, study length 127 weeks) was 36.5 mg/kg/day; the TD50 (mouse, strain Swiss albino, females, by gavage, site: gall bladder, lesion: several types, types named in the paper, dosed 53 weeks, study length 127 weeks) was 28.9 mg/kg/day; the TD50 (mouse, strain Swiss albino, females, by gavage, site: liver, lesion: hepatocellular carcinoma, dosed 53 weeks, study length 127 weeks) is 74.6 mg/kg/day; the TD50 (mouse, strain Swiss albino, females, by gavage, site: liver, lesion: hepatoma, dosed 53 weeks, study length 127 weeks) was found to be 9.27 mg/kg/day; the TD50 (mouse, strain Swiss albino, females, by gavage, site: liver, lesion: several types, types named in the paper, dosed 53 weeks, study length 127 weeks) is 7.9 mg/kg/day. The TD50 is 8.7 mg/kg/day (mouse, strain Swiss albino, females, by gavage, site: lung, lesion: adenocarcinoma, dosed 53 weeks, study length 127 weeks); 2.39 mg/kg/day (mouse, strain Swiss albino, females, by gavage, site: lung, lesion: adenoma, dosed 53 weeks, study length 127 weeks); 1.99 mg/kg/day (mouse, strain Swiss albino, females, by gavage, site: lung, lesion: several types, types named in the paper, dosed 53 weeks, study length 127 weeks); 46.1 mg/kg/day (mouse, strain Swiss albino, males, by gavage, site: gall bladder, lesion: adenoma, dosed 53 weeks, study length 119 weeks); 34.2 mg/kg/day (mouse, strain Swiss albino, males, by gavage, site: liver, lesion: hepatocellular carcinoma, dosed 53 weeks, study length 119 weeks); 8 mg/kg/day (mouse, strain Swiss albino, males, by gavage, site: liver, lesion: hepatoma, dosed 53 weeks, study length 119 weeks). Besides, the TD50 by setting is: (mouse, strain Swiss albino, males, by gavage, site: liver, lesion: several types, types named in the paper, dosed 53 weeks, study length 119 weeks) 5.97 mg/kg/day; (mouse, strain Swiss albino, males, by gavage, site: lung, lesion: adenocarcinoma, dosed 53 weeks, study length 119 weeks) 10.7 mg/kg/day; (mouse, strain Swiss albino, males, by gavage, site: lung, lesion: adenoma, dosed 53 weeks, study length 119 weeks) 3.3 mg/kg/day; (mouse, strain Swiss albino, males, by gavage, site: lung, lesion: several types, types named in the paper, dosed 53 weeks, study length 119 weeks) 2.53 mg/kg/day; (mouse, strain Swiss albino, males, by gavage, site: preputial gland, lesion: several types, types named in the paper, dosed 53 weeks, study length 119 weeks) 4.36 mg/kg/day; (mouse, strain Swiss albino, males, by gavage, site: preputial gland, lesion: squamous-cell carcinoma, dosed 53 weeks, study length 119 weeks) 5.59 mg/kg/day. Moreover, for the setting “mouse, strain Swiss albino, males, by gavage, site: preputial gland, lesion: squamous-cell papilloma, dosed 53 weeks, study length 119 weeks”, the TD50 came out at 34.2 mg/kg/day.

For `O=C(O)C1C2C=CC(C2)C1(C(=O)O)[N+](=O)[O-]` (centres undefined), the TD50 worked out at 169 mg/kg/day (mouse, strain B6C3F1, females, in drinking water, site: any site (literature study), lesion: several types, types named in the paper, dosed 104 weeks, study length 104 weeks); 1240 mg/kg/day (mouse, strain B6C3F1, females, in drinking water, site: liver, lesion: hemangioma, dosed 104 weeks, study length 104 weeks); 3190 mg/kg/day (mouse, strain B6C3F1, females, in drinking water, site: liver, lesion: hyperplastic nodule, dosed 104 weeks, study length 104 weeks); 5650 mg/kg/day (mouse, strain B6C3F1, females, in drinking water, site: lung, lesion: papillary tumor, dosed 104 weeks, study length 104 weeks); 153 mg/kg/day (mouse, strain B6C3F1, males, in drinking water, site: any site (literature study), lesion: several types, types named in the paper, dosed 104 weeks, study length 104 weeks); 2640 mg/kg/day (mouse, strain B6C3F1, males, in drinking water, site: liver, lesion: hepatoma, dosed 104 weeks, study length 104 weeks). In addition, for the setting “mouse, strain B6C3F1, males, in drinking water, site: lung, lesion: papillary tumor, dosed 104 weeks, study length 104 weeks”, the TD50 worked out at 348 mg/kg/day.

Take `N[C@@H](Cc1cnc[nH]1)C(=O)O`: the carcinogen call (rat, strain F344/DuCrj, females, in feed, site: liver, lesion: hepatocellular adenoma, dosed 104 weeks, study length 107 weeks) is “negative (inactive)”. Besides, for the setting “rat, strain F344/DuCrj, males, in feed, site: liver, lesion: hepatocellular adenoma, dosed 104 weeks, study length 107 weeks”, the TD50 is 52200 mg/kg/day (inactive).

Consider `Cc1cc(Cc2cc(C)cc(C(C)(C)C)c2O)c(O)c(C(C)(C)C)c1`, for which the carcinogen call was “negative (inactive)” (rat, strain Wistar, females, in feed, site: liver, lesion: one or several types, types not named, dosed 52 weeks, study length 52 weeks); “negative (inactive)” (rat, strain Wistar, females, in feed, site: liver, lesion: one or several types, types not named, dosed 78 weeks, study length 78 weeks); “negative (inactive)” (rat, strain Wistar, males, in feed, site: liver, lesion: hepatocellular adenoma, dosed 78 weeks, study length 78 weeks); “negative (inactive)” (rat, strain Wistar, males, in feed, site: liver, lesion: one or several types, types not named, dosed 52 weeks, study length 52 weeks). The TD50 is 44.5 mg/kg/day (inactive) (rat, strain Wistar, males, in feed, site: testis, lesion: interstitial-cell tumor, dosed 52 weeks, study length 52 weeks) and 36.6 mg/kg/day (inactive) (rat, strain Wistar, males, in feed, site: testis, lesion: interstitial-cell tumor, dosed 78 weeks, study length 78 weeks).

For the compound `NCC(=O)O`, the TD50 was 7550 mg/kg/day (rat, strain F344/DuCrj, females, in drinking water, site: any site (literature study), lesion: several types, types named in the paper, dosed 108 weeks, study length 108 weeks); 25700 mg/kg/day (rat, strain F344/DuCrj, females, in drinking water, site: kidney/pelvis, lesion: transitional-cell papilloma, dosed 108 weeks, study length 108 weeks); 157000 mg/kg/day (rat, strain F344/DuCrj, females, in drinking water, site: liver, lesion: neoplastic nodule, dosed 108 weeks, study length 108 weeks); 3100 mg/kg/day (rat, strain F344/DuCrj, females, in drinking water, site: uterus, lesion: endometrial stromal polyp, dosed 108 weeks, study length 108 weeks).

With `CCCOC(=O)C1c2cc3c(cc2CC(C)C1C(=O)OCCC)OCO3` (centres undefined), the TD50 by setting is: (mouse, strain B6AKF1, females, oral dosing, site: any site (literature study), lesion: several types, types named in the paper, dosed 76 weeks, study length 76 weeks) 4390 mg/kg/day (inactive); (mouse, strain B6AKF1, females, oral dosing, site: lung, lesion: adenoma, dosed 76 weeks, study length 76 weeks) 4690 mg/kg/day (inactive); (mouse, strain B6C3F1, males, oral dosing, site: any site (literature study), lesion: several types, types named in the paper, dosed 76 weeks, study length 76 weeks) 374 mg/kg/day (inactive); (mouse, strain B6C3F1, males, oral dosing, site: liver, lesion: hepatoma, dosed 76 weeks, study length 76 weeks) 1050 mg/kg/day (inactive); (mouse, strain B6C3F1, males, oral dosing, site: lung, lesion: adenoma, dosed 76 weeks, study length 76 weeks) 4650 mg/kg/day (inactive). Further, the carcinogen call is, setting by setting: (mouse, strain B6AKF1, females, oral dosing, site: liver, lesion: hepatoma, dosed 76 weeks, study length 76 weeks) “negative (inactive)”; (mouse, strain B6AKF1, males, oral dosing, site: any site (literature study), lesion: several types, types named in the paper, dosed 76 weeks, study length 76 weeks) “negative (inactive)”; (mouse, strain B6AKF1, males, oral dosing, site: liver, lesion: hepatoma, dosed 76 weeks, study length 76 weeks) “negative (inactive)”; (mouse, strain B6AKF1, males, oral dosing, site: lung, lesion: adenoma, dosed 76 weeks, study length 76 weeks) “negative (inactive)”; (mouse, strain B6C3F1, females, oral dosing, site: any site (literature study), lesion: one or several types, types not named, dosed 76 weeks, study length 76 weeks) “negative (inactive)”; (mouse, strain B6C3F1, females, oral dosing, site: liver, lesion: hepatoma, dosed 76 weeks, study length 76 weeks) “negative (inactive)”. For the same compound, the carcinogen call (mouse, strain B6C3F1, females, oral dosing, site: lung, lesion: several types, types named in the paper, dosed 76 weeks, study length 76 weeks) was “negative (inactive)”.

Regarding `C=C1C(C)(C)[C@@]2(Cl)C(Cl)[C@]1(Cl)C(Cl)(Cl)C2(Cl)Cl` (some centres undefined), the TD50 by setting is: (mouse, strain B6AKF1, males, oral dosing, site: any site (literature study), lesion: several types, types named in the paper, dosed 79 weeks, study length 79 weeks) 0.75 mg/kg/day; (mouse, strain B6AKF1, males, oral dosing, site: liver, lesion: hepatoma, dosed 79 weeks, study length 79 weeks) 0.644 mg/kg/day; (mouse, strain B6C3F1, females, oral dosing, site: any site (literature study), lesion: several types, types named in the paper, dosed 79 weeks, study length 79 weeks) 3.37 mg/kg/day; (mouse, strain B6C3F1, females, oral dosing, site: lung, lesion: adenoma, dosed 79 weeks, study length 79 weeks) 10.7 mg/kg/day; (mouse, strain B6C3F1, males, oral dosing, site: all sites, lesion: reticulum-cell sarcoma, dosed 79 weeks, study length 79 weeks) 1.41 mg/kg/day; (mouse, strain B6C3F1, males, oral dosing, site: any site (literature study), lesion: several types, types named in the paper, dosed 79 weeks, study length 79 weeks) 0.75 mg/kg/day. Also, the TD50 by setting is: (mouse, strain B6C3F1, males, oral dosing, site: liver, lesion: hepatoma, dosed 79 weeks, study length 79 weeks) 4 mg/kg/day; (mouse, strain B6C3F1, males, oral dosing, site: lung, lesion: adenoma, dosed 79 weeks, study length 79 weeks) 8.29 mg/kg/day.

Turning to `COC(=O)C1=C(C)NC(C)=C(C(=O)OCC(C)(C)CN(C)Cc2ccccc2)C1c1cc([N+](=O)[O-])ccc1F` (centres undefined), the carcinogen call (rat, strain Fischer 344, females, in feed, site: liver, lesion: one or several types, types not named, dosed 104 weeks, study length 104 weeks) is “negative (inactive)”; the carcinogen call (rat, strain Fischer 344, males, in feed, site: all sites, lesion: mononuclear-cell leukemia, dosed 104 weeks, study length 104 weeks) is “negative (inactive)”; the carcinogen call (rat, strain Fischer 344, males, in feed, site: liver, lesion: hepatocellular adenoma, dosed 104 weeks, study length 104 weeks) was “negative (inactive)”.

Consider `COS(C)(=O)=O`, for which the TD50 by setting is: (mouse, strain RF, males, in drinking water, site: liver, lesion: one or several types, types not named, dosed 104 weeks, study length 104 weeks) 3980 mg/kg/day (inactive); (mouse, strain RF, males, in drinking water, site: lung, lesion: adenoma, dosed 104 weeks, study length 104 weeks) 31.8 mg/kg/day; (mouse, strain RF, males, in drinking water, site: thymus gland, lesion: lymphoma, dosed 104 weeks, study length 104 weeks) 185 mg/kg/day.
